Assay results: PMC6429200, “Synthesis and Broad Antiviral Activity of Novel 2-aryl-isoindolin-1-ones towards Diverse Enterovirus A71 Clinical Isolates” (Molecules, 2019)
Values joined by “and” are separate entries in the source; they are usually repeats but may differ in a detail not shown here. Equal values may be shown once.

What was measured:
[1] = tested on: EV-A71 (H strain) VP1 RNA; assay: qRT-PCR of VP1 RNA in infected Vero cells; type: cell-based, Enterovirus 71 (EV-A71); details: H strain MOI = 0.1, 1 h infection then A3 for 24 h, RT-qPCR
Description: (§1) To further confirm the anti-EV-A71 activity, the expression levels of VP1 RNA and protein were determined. Vero cells were infected with the H strain of EV-A71 for 1 h followed by treatment with A3 of various concentrations for another 24 h. […] Meanwhile, the antiviral efficacy of A3 was also tested using viral titer reduction assays.
Vero cells (9 × 10^5cells/well) were plated into 6-well culture plates for incubation for 16 h. The medium was removed and cells were infected with EV-A71 (H, MOI = 0.1). After 1 h, various concentrations of A3 were supplemented and incubated for another 24 h. The total RNA of the infected cells was extracted using the RNeasy Mini kit (QIAGEN) according to the manufacturer’s instructions. […] The RNA expression of EV-A71 VP1 was detected with the sense primer 5′-GATATCCCACATTCGGTGA-3′ and the antisense primer 5′-[…] -3′ targeting a conserved region of the VP1 gene. β-Actin mRNA was detected using the sense primers 5′-TGACGGGGT CACCCACA CTGTGCCCATCTA-3′ and the antisense primer 5′-CTAGAAGCATTTG CGGTGGACG ATG-3′. […] The relative amounts of EV-A71 VP1 mRNA were calculated by the comparative Ct method after normalizing the quantity of β-actin [15].
Figure 2 Compound A3 inhibited EV-A71 replication in vitro. […] Intracellular viral VP1 protein (A) and RNA (B) were determined by Western blot and qRT-PCR assays, respectively. […]

[2] = tested on: four EV-A71 strains (BrCr, H, Shenzhen98, Jiangsu52); assay: CPE inhibition assay, summary over four EV-A71 strains; type: cell-based, Enterovirus 71 (EV-A71)
Description: (§2) An in-vitro antiviral assay was established using the Africa monkey kidney cell line Vero which was infected with different EV-A71 clinical isolates (BrCr, H, Shenzhen98 and Jiangsu52). A total of 24 synthetic compounds were initially screened in such an assay to determine their inhibitory effect on virus replication at 3-fold diluted concentrations serial (400~0.18 μM). The 50% effective concentration (EC50) of each compound was calculated according to its inhibitory rate values with the Reed–Muench method. The 50% cytotoxic concentration (CC50) was defined as the concentration that inhibited 50% cellular growth in comparison with the controls. The selectivity index (SI) was calculated as CC50/EC50. […] Generally, the EV-A71 H strain was less sensitive to most of the active compounds as compared to the other virus strains.
(§3) The anti-EV-A71 activity of compounds was determined by the CPE inhibition method. Briefly, cells (3 × 10^4 cells/well) were plated into 96-well culture plates for incubation for 24 h. The medium was then removed and cells were infected with EV-A71 with 100TCID50 (50% tissue culture infective doses) in serum-free medium for 1 h at 37 °C. Then, the unbound viruses were removed and various concentrations of compounds were supplemented and incubated for another 48 h. The EC50 was determined by the Reed–Muench method. The selectivity index was calculated as the ratio of CC50/EC50 [15].

EV-A71 strain BrCr = assay: CPE inhibition assay for anti-EV-A71 in Vero cells, BrCr strain; type: cell-based, Enterovirus 71 (EV-A71)
Description: as §2
(§4) EV-A71 strain ShenZhen98 (SZ98) was isolated from the throat swab sample of an HFMD case which occurred in 1998 in China. This was kindly provided by Dr. Qi Jin, Institute of Pathogen Biology, Chinese Academy of Medical Science and Peking Union Medical School, Beijing, China. EV-A71 strains BrCr (VR-1775) and H (VR-1432) were purchased from the ATCC. The EV-A71 strain JS52 was a kind gift from Dr. Xiangzhong Ye, Beijing Wantai Biological Pharmacy Enterprise Co., Ltd. EV-A71 were all passaged in Vero cells.
as §3

EV-A71 = assay: Viral titer reduction assay; type: cell-based, Enterovirus 71 (EV-A71); details: cells treated after EV-A71 infection
Description: as §1
Figure 2 Compound A3 inhibited EV-A71 replication in vitro. Vero cells (9 × 10^5 cells/well) were plated into 6-well culture plates and infected with EV-A71 (multiplicity of infection, MOI = 0.1) for 1 h. The infected cells were then treated with the indicated concentrations of A3 for 24 h. Intracellular viral VP1 protein (A) and RNA (B) were determined by Western blot and qRT-PCR assays, respectively. (C) The inhibition of a viral titer by A3. ** p < 0.01 * p < 0.05.

EV-A71 strain H = assay: CPE inhibition assay for anti-EV-A71 in Vero cells, H strain; type: cell-based, Enterovirus 71 (EV-A71)
Description: as §2, §4, §3

[3] = tested on: EV-A71 strain ShenZhen98 (SZ98); assay: CPE inhibition assay for anti-EV-A71 in Vero cells, Shenzhen98 strain; type: cell-based, Enterovirus 71 (EV-A71)
Description: as §2, §4, §3

[4] = tested on: EV-A71 strain Jiangsu52 (JS52); assay: CPE inhibition assay for anti-EV-A71 in Vero cells, Jiangsu52 strain; type: cell-based, Enterovirus 71 (EV-A71)
Description: as §2, §4, §3

[5] = Cytotoxicity assay (CPE) on Vero cells; type: cell-based; details: African green monkey; Vero cells, 3 days of incubation, Reed–Muench; read-out: CC50
Description: as §2
African green monkey kidney (Vero) cells were purchased from the American Type Culture Collection (ATCC) and were cultured in minimum essential medium (MEM) supplemented with 10% fetal bovine serum (FBS) (GIBCO) and antibiotics (100 U/mL penicillin and […] streptomycin) at 37 °C in a 5% CO2 incubator.
The cytotoxic effects of compounds on Vero cells were detected by the cytopathic effect (CPE) assay. Briefly, cells (3 × 10^4 cells/well) were seeded into 96-well culture plates and incubated overnight. Then, the medium was removed and different concentrations of compounds were applied in triplicate. After 3 days of incubation, the CC50 was defined as the concentration that inhibited 50% cellular growth in comparison with the untreated controls, as calculated by the Reed–Muench method.

[6] = Enterovirus A, EVA71, Vero cells, 100TCID50, 48 h

In the case of O=C1c2ccccc2CN1c1ccc(Cl)cc1 [Compound A3, 2-(4-chlorophenyl)isoindolin-1-one], the “VP1 RNA expression level” value [1] is reported as “significantly reduced VP1 RNA expression level in a dose-dependent way”, the “SI towards four EV-A71 strains” value ([2]; CC50/EC50, range over four strains) is reported as 168-199 and 98–199 and the IC50 ([2]; Enterovirus A, EV71 / EVA71, read-out: Anti-EV71 IC50) is reported as 1.29 to 1.53 µM. For the same molecule, the EC50 ([2]; Enterovirus A, EVA71, Vero, read-out: EC50 towards four EV-A71 strains) was 1.23 to 1.76 µM, the “EC50 fold higher than pirodavir” value ([2]; relative to reference compound pirodavir) was 2–4 fold and the “BrCr SI” value (EV-A71 strain BrCr; CC50/EC50) was 199. The EC50 (EV-A71 strain BrCr; [6]) was 1.29 ± 0.24 µM, the viral titers (EV-A71) was “dose-dependent reduction in viral titers” and the “H SI” value (EV-A71 strain H; CC50/EC50) was 168. For the same molecule, the EC50 (EV-A71 strain H; [6]) was 1.53 ± 0.16 µM, the “Shenzhen98 SI” value ([3]; CC50/EC50) was 199 and the EC50 [3, 6] was 1.29 ± 0.24 µM. The “Jiangsu52 SI” value ([4]; CC50/EC50) was 199, the EC50 [4, 6] was 1.29 ± 0.24 µM and the CC50 at 3 days [5] was 257 ± 35.3 µM.
